Reference: US9783551B2, “Pyranochromenyl phenol derivative, and pharmaceutical composition for treating metabolic syndrome or inflammatory disease” (GLACEUM, INC., priority 2013, dated 2017)

Key:
BV2 microglia cells = assay: BV2 cell NO assay (LPS-induced NO production, Griess reagent); format: cell-based; details: Mus musculus, BV-2, LPS 1 μg/ml, 24 hours
Method: (§1) After the pretreatment, 0.5 mg/ml of the MTT (Sigma, M2128) reagent was further added thereto. After the cells were cultured in a 5% CO2 incubator, the supernatant was discarded, 150 μl of DMSO was added and was shaken for 30 minutes, and an ELISA micro plate reader (Bio Rad Laboratories Inc., California, USA, Model 680) was used to measure the absorbance at a wavelength of 540 nm. All the experimental values were calculated as an average value of three repeated experimental values of the cell protection rate for the control group, and an experiment of suppressing the NO production for each compound was carried out at a concentration in which no cytotoxicity was shown.
(§2) After the reaction, an ELISA micro plate reader (Bio Rad Laboratories Inc., California, USA, Model 680) was used to measure the absorbance at a wavelength of 540 nm. The suppression rate was calculated as a difference in amount of NO produced between the control group and the experimental group, and as shown in the following Table 6 and FIG. 6, Compounds 4, 5, 15, 16, 18, and the like of the present invention were excellent in the effect of suppressing the production of NO, and the effect is also about 5 times to about 9 times better than that of glabridin.

PTP1B = PTP1B (Homo sapiens (Human), UniProt P18031); assay: Experiment of PTP1B inhibition (p-NPP dephosphorylation); format: biochemical; details: 2 mM p-NPP substrate, 30° C., 30 minutes
Sequence of PTP1B (P18031 whole entry, species assumed): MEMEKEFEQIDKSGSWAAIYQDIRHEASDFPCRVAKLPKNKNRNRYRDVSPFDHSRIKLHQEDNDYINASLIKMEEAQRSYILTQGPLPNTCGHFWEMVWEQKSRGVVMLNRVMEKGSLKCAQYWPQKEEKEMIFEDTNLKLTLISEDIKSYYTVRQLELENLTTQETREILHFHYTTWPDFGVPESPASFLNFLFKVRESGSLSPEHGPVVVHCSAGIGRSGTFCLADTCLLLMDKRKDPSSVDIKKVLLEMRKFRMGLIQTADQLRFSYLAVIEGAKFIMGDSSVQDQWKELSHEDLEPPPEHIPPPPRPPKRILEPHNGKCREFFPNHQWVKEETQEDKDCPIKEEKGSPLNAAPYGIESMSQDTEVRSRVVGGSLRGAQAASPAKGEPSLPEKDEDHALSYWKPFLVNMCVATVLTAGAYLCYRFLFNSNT
Description: With respect to PTP1B, the degrees of inhibition (IC50 The half maximal inhibitory concentration) of glabridin, and compounds of Preparation Example 2 (Compound 1), Example 2 (Compound 3), Example 3 (Compound 4), Example 4 (Compound 5), Example 13 (Compound 14), Example 14 (Compound 15), Example 15 (Compound 16), Example 17 (Compound 18), Example 18 (Compound 19) and Example 20 (Compound 21) were compared to each other. For this purpose, the degree of inhibition activity for PTP1B was investigated by using 2 mM p-nitrophenyl phosphate (p-NPP) as a substrate to measure the dephosphorylation degree. First, PTP1B diluted with distilled water was reacted with 2 mM p-nitrophenyl phosphate {p-NPP, 0.1 M NaCl, 1 mM EDTA, 50 mM citrate pH 6.0, and 1 mM dithiothreitol (DTT)} and Compound 1 at various concentrations at 30° C. for 30 minutes, and then the reaction was terminated with a 1 N-sodium hydroxide (NaOH) solution. The absorbance of the samples thus prepared was measured to confirm the inhibition degree (IC50: The half maximal inhibitory concentration) for PTP1B activity according to the concentration of Compound 1. Even for glabridin, Compound 3, Compound 4, Compound 5, Compound 14, Compound 15, Compound 16, Compound 18, Compound 19, and Compound 21, the same measurement was performed.

DIO mice [1] = assay: Anti-obesity effect for DIO mice (body weight); format: in vivo, C57BL/6 mice; details: Mus musculus, 672 h; 4 weeks, 150 mg/kg, oral gavage once daily
Method: (§3) Five-week-old female C57BL/6 mice (Narabio Co., Ltd.) were purchased and fed with only high-fat diet for at least 10 weeks to produce diet induced obesity ([…]) mice. Samples were exactly taken from Preparation Example 1 (glabridin) and the compounds of Examples of the present invention (Compounds 1 to 5, 7, 9, 11, 14 to 16, 21, and 23) according to the administration dose and put into Falcon tubes, 3 ml of a 0.5% methyl cellulose aqueous solution was added thereto and a vortex mixer was used to primarily mix the ingredients in a soft manner, and then a homogenizer (30,000 rpm, Ultra-Turrax® T10 Basic, IKA) was used to treat the sample for 3 minutes while 1.5 ml of a 0.5% methyl cellulose aqueous solution was added thereto. The sample thus prepared was administered through oral gavage using a disposable plastic syringe once daily for 28 days (4 weeks). The body weight was measured twice a week while the DIO mice were bred in this manner. Based on the data thus calculated, the anti-obesity effect (%) was calculated according to the equation defined as follows. Anti-Obesity Effect={(Body weight of control group)−(Body weight of experimental group)}/(Body weight of control group)×100

RAW264.7 macrophages = assay: RAW264.7 macrophage NO assay (LPS-induced NO production, Griess reagent); format: cell-based; details: for IC50: Mus musculus, RAW264.7, NO production, LPS 1 μg/ml, 24 hours
Method: as §1, with “pretreatment,” for “pretreatment, 0.5 mg/ml of”, “reagent at a concentration of 0.5 mg/ml” for “reagent”, “incubator for 4 hours,” for “incubator,”
as §2, with “7,” for “6 and FIG. 6,”, “NO.” for “NO, and the effect is also about 5 times to about 9 times better than that of glabridin.”

[2] = Chemical stability in 1% HCl in MeOH (HPLC); format: physicochemical
Method: (§4) The relative chemical stability of glabridin of Preparation Example 1, Example 3 (Compound 4), Example 4 (Compound 5) and Example 14 (Compound 15) were compared with each other. That is, 50 mg of each of glabridin, Compound 4, Compound 5, and Compound 15 was exactly weighed, dissolved in 50 ml of 1% HCl in MeOH and 10 ml of 1% NaOH in MeOH, and the concentrations of the compounds were examined by HPLC at each time level of 0, 8 hrs, 12 hrs, 24 hrs, 48 hrs, and 72 hrs. At this time, the concentrations of the compounds remaining in 1% HCl in MeOH and 1% NaOH in MeOH were determined using an internal standard (Compound 14 of Example 13). That is, 10 mg of Compound 14 was exactly weighed and dissolved in 100 ml of acetonitrile, 9 ml of this solution was mixed with 1 ml of the sample aliquoted at each time level, the mixture was analyzed by HPLC, and the concentrations of the compounds in the internal standard and in the above samples were determined by comparing the initial values.
(§5) The concentrations of the compounds remaining in 1% HCl in MeOH and 1% NaOH in MeOH at each time level are in the following Table 8 and FIG. 7 and the following Table 9 and FIG. 8, respectively.
(§6) The numerical values exceeding 100% in the following Tables 8 and 9 show those measured at a concentration is slightly higher than the initial measurement value, and this is due to the fact that an average value of the measured values was simply shown without considering a statistical error generated during the measurement. Since the measured value of about 95% or more is deemed to have practically no change in concentration, it may be seen that the compounds of the present invention are excellent in chemical stability.

[3] = Chemical stability in 1% NaOH in MeOH (HPLC); format: physicochemical
Method: as §4, §5, §6

DIO mice [4] = assay: Organ weights and blood biochemistry of DIO mice after 28 days of administration; format: in vivo, C57BL/6 mice; details: 150 mg/kg
Method: as §3
After the experiment was performed for 28 days (4 weeks) as described above, blood was simultaneously taken while the experimental animal was finally sacrificed, and each of the organs (liver, heart, kidney, pancreas, fat tissues and the like) was removed to measure the weight and observe peculiar matters.
In Table 3, { }, ( ) and the like were used in order to differentiate experiments which had been performed at different periods. Experiments without the parenthesis were those simultaneously performed under the same conditions.

C2C12 cells = assay: Glucose uptake (2-NBDG) in C2C12 cells; format: cell-based; details: 24 hours
Method: In terms of capacity of glucose uptake in C2C12 cells, the compound (Compound 15) of Example 14 of the present invention was compared with the existing Rosiglytazone and Metformin which were used or are currently used as a therapeutic agent for diabetes. The C2C12 cell was cultured in a Dulbecco's modified eagle medium (DMEM) supplemented with 10% fetal bovine serum (FBS), penicillin (120 unit/mL), and streptomycin (75 μg/mL), the medium used for differentiation was a DMEM medium supplemented with 1% horse serum, and the C2C12 cell was cultured in the DMEM medium for 4 days. The cell thus cultured was treated with Compound 15 in a low-glucose, serum-free medium supplemented with 2-[N-(7-nitrobenz-2-oxa-1,3-diazol-4-yl)amino]-2-deoxy-d-glucose (2-NBDG) for 24 hours to measure the glucose absorbance at an excitation wavelength of 485 nm and an emission wavelength of 535 nm using a fluorescent detector. The same experiment was performed on Rosiglytazone and Metformin.

Row | SMILES | IC50 (BV2 microglia cells) [µM] | IC50 (PTP1B) [µM] | inhibition in vivo at 150 mg/kg (DIO mice [1]) [%] | IC50 (RAW264.7 macrophages) [µM] | concentration of compound remaining [2]; 0 [%] | concentration of compound remaining ([2]; 8 h) [%] | concentration of compound remaining ([2]; 24 h) [%] | concentration of compound remaining ([2]; 48 h) [%] | concentration of compound remaining ([2]; 72 h) [%] | concentration of compound remaining [3]; 0 [%] | concentration of compound remaining ([3]; 8 h) [%] | concentration of compound remaining ([3]; 24 h) [%] | concentration of compound remaining ([3]; 48 h) [%] | concentration of compound remaining ([3]; 72 h) [%] | also measured
1 | CCc1ccc(C2COc3c(ccc4c3CCC(C)(C)O4)C2)c(O)c1 (stereo not drawn) [Compound 4, 3-(2-hydroxy-4-ethylphenyl)-8,8-dimethyl-2,3,4,8,9,10-hexahydropyrano [2,3-f] chromene] | 3.7 | 2.9 | 18 | 8.6 | 100 | 99 | 101 | 101 | 100 | 100 | 101 | 101 | 99 | 100 | effect of suppressing the production of NO (RAW264.7 macrophages; RAW264.7 macrophages, in words): excellent; stability in words ([2]; until 3 days (72 hours)): very stable; stability in words ([3]; until 3 days (72 hours)): very stable; ALT (U/L) (DIO mice [4]; ( ) experiment): (58) U/L; AST (U/L) (DIO mice [4]; ( ) experiment): (209) U/L; BMI (DIO mice [4]; ( ) experiment): (2.9); FFA (μEq/L) (DIO mice [4]; ( ) experiment): (2380) μEq/L; Fat (g), weight of fat removed around the epididymis and the kidney (DIO mice [4]; ( ) experiment): (1.20) g; LDL (mg/dL) (DIO mice [4]; ( ) experiment): (18) mg/dL; Liver (g), weight of liver (DIO mice [4]; ( ) experiment): (1.25) g
2 | CC1(C)C=Cc2c(ccc3c2OC[C@@H](c2ccc(O)cc2O)C3)O1 [Glabridin, glabridin, reference compound] | 19.6 | 48 | 2 | 9.3 | 100 | 99 | 94 | 82 | 74 | 100 | 71 | 38 | 23 | 13 | ALT (U/L) (DIO mice [4]; experiment without parenthesis): 41 U/L; AST (U/L) (DIO mice [4]; experiment without parenthesis): 90 U/L; BMI (DIO mice [4]; experiment without parenthesis): 4.2; FFA (μEq/L) (DIO mice [4]; experiment without parenthesis): 1520 μEq/L; Fat (g), weight of fat removed around the epididymis and the kidney (DIO mice [4]; experiment without parenthesis): 2.70 g; LDL (DIO mice [4]; experiment without parenthesis): 10 mg/dL; Liver (g), weight of liver (DIO mice [4]; experiment without parenthesis): 1.23 g; ALT (U/L) (DIO mice [4]; { } experiment): {89} U/L; AST (U/L) (DIO mice [4]; { } experiment): {170} U/L; BMI (DIO mice [4]; { } experiment): {4.2}; FFA (μEq/L) (DIO mice [4]; { } experiment): {1913} μEq/L; Fat (g), weight of fat removed around the epididymis and the kidney (DIO mice [4]; { } experiment): {1.92} g; LDL (mg/dL) (DIO mice [4]; { } experiment): {17} mg/dL; Liver (g), weight of liver (DIO mice [4]; { } experiment): {1.48} g
3 | CN(C)C(=N)N=C(N)N [Metformin] | – | – | – | – | – | – | – | – | – | – | – | – | – | – | 2-NBDG uptake (Fold Induction) (C2C12 cells; treatment concentration 20 μM): 1.89 ± 0.03 Fold Induction
4 | CN(CCOc1ccc(CC2SC(=O)NC2=O)cc1)c1ccccn1 (stereo not drawn) [Rosiglytazone] | – | – | – | – | – | – | – | – | – | – | – | – | – | – | 2-NBDG uptake (Fold Induction) (C2C12 cells; treatment concentration 50 μM): 1.94 ± 0.15 Fold Induction
